According to patent US20110281814A1, “METHODS AND COMPOSITIONS FOR TREATING BREAST CANCER” (Genzyme Corporation, priority 2009, published 2011):
Where two headings read alike, the source gives them in different places.

Tests used:
MDA-MB-231 tumors [1] = details: for potentiation of the effect of doxorubicin on tumor growth: three weeks from day 28, vs doxorubicin alone, FIG. 5
Method: Four groups of 6- to 8-week-old SCID mice (6 animals each) were injected subcutaneously with 1×10^6 MDA-MB-231 cells. At the start of dosing (about 28 days post-injection), the tumor volume was approximately 100 mm^3. Beginning approximately 28 days after the injection, Groups 2-4 were administered intraperitoneal injections of doxorubicin once a week (Monday) for three weeks at 2 mg/kg body weight.
The size of the tumors was measured approximately every six days, beginning on day 21 post-injection. Animals were euthanized when the tumor volume reached approximately 1000 mm^3. The time course of the average tumor volume is plotted for each experimental group in FIG. 5.

MDA-MB-231 tumors [2] = test system: MDA-MB-231 tumors
Method: Three groups of 6- to 8-week-old SCID mice (6 animals each) were injected subcutaneously with 2×10^6 MDA-MB-231 cells. At the start of dosing (about 14 days post-injection), the tumor volume was approximately 100 mm^3. Beginning approximately 14 days after the injection, Groups 2 and 3 were administered intraperitoneal injections of doxorubicin once a week (Monday) for the duration of the study at 1 mg/kg body weight.
The size of the tumors was measured approximately every three days, beginning on day 21 post-injection. Animals were euthanized when the tumor volume reached approximately 1000 mm^3. The time course of the average tumor volume is plotted for each experimental group in FIG. 6A.

[3] = test system: SDF-1α/CXCL12-mediated transactivation of HER2/neu; details: MDA-MB-361 breast cancer cells, in vitro; Cabioglu et al. 2005; cited from earlier work
murine 4T1 cells = details: Smith et al. 2004, cited from earlier work
[4] = disclosed in PCT Pub. No. WO 00/045814; cited from earlier work
established 4T1 tumors = test system: established 4T1 tumors
From the text: The 4T1 cell line (available from the […], Manassas, Va.) was derived from a spontaneously arising BALB/c mammary tumor and is commonly used as a syngeneic mouse model of metastatic breast cancer. When introduced orthotopically, the 4T1 line grows rapidly at the primary site and forms metastases in lungs, liver, bone and brain over a period of 3-6 weeks. When introduced intravenously or arterially, metastases are apparent in the same organs after 1-2 weeks. The rapid and efficient metastasis to organs affected in human breast cancer makes the 4T1 model an excellent mouse model for the study of metastatic progression of breast cancer in humans.
Three groups of 6- to 8-week-old SCID mice (6 animals each) were injected subcutaneously with 2×10^5 4T1 cells. At the start of dosing (about 14 days post-injection), the tumor volume was approximately 100 mm^3.
The size of the tumors was measured approximately every four days, beginning on day 10 post-injection. Animals were euthanized when the tumor volume reached approximately 1000 mm^3. […] The time course of the average tumor volume is plotted for each experimental group in FIG. 4A.

[5] = test system: MDA-MB-231 human breast cancer cells admixed with human mesenchymal stem (MSC) cells; assay: Efficacy of AMD3465 in MDA-MB-231+MSC breast cancer model (Example 1); type: in vivo, SCID mice; details: vs PBS control, FIG. 1
Method: The MSC cells provide stromal support to the MDA-MB-231 cells and enhance tumor growth and metastasis via SDF-1α/CXCL12 and RANTES pathways.
Group 2 was given intraperitoneal injections of anti-human SDF-1α/CXCL12 monoclonal antibody three times a week (Monday, Wednesday and Friday) for six weeks at 100 μg per animal.

[6] = test system: established MDA-MB-231 tumors; details: for rate of tumor growth: FIG. 3A; for mean survival (Kaplan-Meier): FIG. 3B
Method: Four groups of 6- to 8-week-old SCID mice (8 animals each) were injected subcutaneously with 1×10^6 MDA-MB-231 cells. At the start of dosing (about 21 days post-injection), the tumor volume was approximately 100 mm^3.
The size of the tumors was measured approximately every five days, beginning on day 21 post-injection. Animals were euthanized when the tumor volume reached approximately 1000 mm^3. The time course of the average tumor volume is plotted for each experimental group in FIG. 3A.

[7] = test system: MDA-MB-231 cells admixed with MSC cells; details: presence of MSC cells, FIG. 2A
Method: (§1) Six groups of 6- to 8-week-old SCID mice (6 animals each) were injected subcutaneously with 1×10^6 MDA-MB-231 cells. Groups 4-6 were further injected with 1×10^6 MSC cells admixed with the MDA-MB-231 cells.
(§2) The size of the tumors was measured approximately every five days, beginning on day 15 post-injection. Animals were euthanized when the tumor volume reached approximately 1000 mm^3. The time course of the average tumor volume is plotted for each experimental group in FIGS. 2A and 2B.

MDA-MB-231 cells = details: AMD3465 5 or 10 mg/kg i.p. MWF from 7 days post-injection; absence of MSC cells; FIG. 2B
Method: as §1, §2

breast cancer = details: mouse models of breast cancer; literature; cited from earlier work
[8] = AMD3100 […] + doxorubicin 2 mg/kg
[9] = AMD3100 […] + doxorubicin 1 mg/kg
[10] = AMD3100 1.25 mg/kg s.c. MWF for two weeks, FIG. 4A

c1cc(CN2CCCNCCNCCCNCC2)ccc1CN1CCCNCCNCCCNCC1 [AMD3100]
potentiation of the effect of doxorubicin on tumor growth (MDA-MB-231 tumors [1]; AMD3100 1.25 mg/kg s.c. MWF + doxorubicin 2 mg/kg i.p. weekly): not at 1.25 mg/kg | leveling off of tumor growth (MDA-MB-231 tumors [1]; [8]): leveled off by day 92 post-injection | onset of tumor growth (MDA-MB-231 tumors [1]; [8]): delayed by several weeks | potentiation of the effect of doxorubicin on tumor growth (MDA-MB-231 tumors [1]; AMD3100 […] s.c. MWF + doxorubicin 2 mg/kg i.p. weekly): potentiated the effect of 2 mg/kg doxorubicin on the tumor growth | leveling off of tumor growth (MDA-MB-231 tumors [2]; [9]): leveled off by day 50 post-injection | onset of tumor growth (MDA-MB-231 tumors [2]; [9]): delayed by about two weeks | rate of tumor growth compared to doxorubicin alone (MDA-MB-231 tumors [2]; [9]): significantly (p=0.04) decreased | mean survival (Kaplan-Meier) compared to doxorubicin alone (MDA-MB-231 tumors [2]; AMD3100 […] + doxorubicin 1 mg/kg, FIG. 6B): significantly (p=0.07) increased the mean survival | potentiation of the effect of doxorubicin on tumor growth (MDA-MB-231 tumors [2]; AMD3100 […] s.c. MWF + doxorubicin 1 mg/kg i.p. weekly, duration of study from day 14, FIG. 6A): significantly potentiated the effect of 1 mg/kg doxorubicin on the tumor growth | SDF-1α/CXCL12-mediated transactivation of HER2/neu [3]: inhibit | growth onset of 4T1 cells in the lung (murine 4T1 cells): significantly delayed the growth onset | overall survival (murine 4T1 cells; mice with experimental lung metastases): did not appear to improve overall survival | white blood cell count [4]: increasing the white blood cell count | leveling off of tumor growth (established 4T1 tumors; [10]): largely leveled off by day 26 post-injection | onset of tumor growth (established 4T1 tumors; [10]): delayed by approximately one week | rate of tumor growth (established 4T1 tumors; [10]): significantly decreased the rate of tumor growth | mean survival (Kaplan-Meier) (established 4T1 tumors; AMD3100 1.25 mg/kg, FIG. 4B): increased the mean survival

c1ccc(CNCc2ccc(CN3CCCNCCNCCCNCC3)cc2)nc1 [AMD3465]
rate of tumor growth ([5]; AMD3465 5 mg/kg i.p. MWF for six weeks from 48 hours post-injection): significantly (p=0.07) decreased the rate of tumor growth | rate of tumor growth ([5]; AMD3465 10 mg/kg i.p. MWF for six weeks from 48 hours post-injection): not at 10 mg/kg | rate of tumor growth ([6]; AMD3465 5 mg/kg i.p. MWF from about 21 days post-injection): not at 5 or 10 mg/kg | mean survival (Kaplan-Meier) ([6]; AMD3465 5 mg/kg): not at 5 or 10 mg/kg | rate of tumor growth ([6]; AMD3465 10 mg/kg i.p. MWF from about 21 days post-injection): not at 5 or 10 mg/kg | mean survival (Kaplan-Meier) ([6]; AMD3465 10 mg/kg): not at 5 or 10 mg/kg | rate of tumor growth ([7]; AMD3465 5 mg/kg i.p. MWF from 7 days post-injection): significantly (p=0.024) decreased the rate of tumor growth | rate of tumor growth ([7]; AMD3465 10 mg/kg i.p. MWF from 7 days post-injection): not at 10 mg/kg | rate of tumor growth (MDA-MB-231 cells): no statistically significant effect

TN14003
metastasis (breast cancer): reduce metastasis | primary tumor growth (breast cancer): reduce primary tumor growth
